Counter-ions that a name gives are not always drawn. Like-named read-outs stand apart in the source and are kept apart here.
Assays:
[1] = molecular target: T1, α7 nAChRs (Rattus norvegicus, UniProt Q05941); assay: [3H]-methyllycaconitine (MLA) binding assay
T1 construct: Membrane enriched fractions from rat brain minus cerebellum; tissue ABS Inc., Wilmington, Del; host or cells: rat brain minus cerebellum
Experimental: To determine the effectiveness of representative compounds of this invention as α7 nAChRs, the compounds of the invention were evaluated according to the [3H]-methyllycaconitine (MLA) binding assay and considering the [^3H]-cytisine binding assay, which were performed as described below.
[^3H]-Methyllycaconitine (MLA) Binding
Binding conditions were similar to those for [^3H]-cytisine binding. Membrane enriched fractions from rat brain minus cerebellum (ABS Inc., Wilmington, Del.) were slowly thawed at 4° C., washed and resuspended in 30 volumes of BSS-Tris buffer (120 mM NaCl, 5 mM KCl, 2 mM CaCl2, 2 mM MgCl2, and 50 mM Tris-Cl, pH 7.4, 22° C.). Samples containing 100-200 μg of protein, 5 nM [^3H]-MLA (25 Ci/mmol; Perkin Elmer/NEN Life Science Products, Boston, Mass.) and 0.1% bovine serum albumin (BSA, Millipore, Bedford, Mass.) were incubated in a final volume of 500 μL for 60 minutes at 22° C. Seven log-dilution concentrations of each compound were tested in duplicate. Non-specific binding was determined in the presence of 10 μM MLA. Bound radioactivity was isolated by vacuum filtration onto glass fiber filter plates prewetted with 2% BSA using a 96-well filtration apparatus (Packard Instruments, Meriden, Conn.) and were then rapidly rinsed with 2 mL of ice-cold BSS. Packard MicroScint-20® scintillation cocktail (40 μL) was added to each well and radioactivity was determined using a Packard TopCount® instrument. The IC50 values were determined by nonlinear regression in Microsoft Excel® software. Ki values were calculated from the IC50s using the Cheng-Prusoff equation, where Ki=IC50/1+[Ligand]/KD].

[2] = molecular target: hERG ion channel (Homo sapiens, UniProt Q12809); assay: [3H]-dofetilide binding to membranes from HERG-transfected HEK cells; settings: for selectivity ratio at 45 min: human, membrane preparations from HERG-transfected HEK cells, pH 7.4, probe [3H]-dofetilide
Experimental: Membrane aliquots were thawed and homogenized again in a glass Dounce homogenizer (approximately 10 passes). Test compounds were diluted (6 concentrations at half-log intervals) from DMSO stock solutions in assay buffer (135 mM NaCl, 5 mM KCl, 0.8 mM MgCl2, 10 mM HEPES, 10 mM glucose, 1 mM EGTA, 0.01% BSA, pH 7.4), and tested in duplicate at each concentration. The following were added to each 200 μl well of a 96-well polystyrene plate (Packard Optiplate, cat. # 6005290): 20 μl of assay binding buffer (for total bounds), or 1 μM astemizole (for non-specific bounds), or test compound, 50 μl of [^3H]-dofetilide, and 130 μl of membrane homogenate (final protein concentration=30 μg per well). The plates were incubated at room temperature for 45 m, aspirated onto GF/B filter plates, and washed with 2 ml of cold wash buffer. The radioactivity was counted in a Packard Topcount Scintillation Counter after addition of 50 μl of scintillant (Packard Microscint-20, cat. # 6013621). The data were analyzed with a four-parameter logistic equation (PRISM™, Graphpad or Assay Explorer™, MDL). Ki values were derived by means of the Cheng and Prusoff (1973) equation (Ki=IC50/1+[ligand]/Kd) using Kd values for [^3H]-dofetilide obtained from previously performed saturation assays (Diaz et al., 2004). […] Each Ki represents an average of at least two independent determinations.
Thus, binding affinities to the hERG channel were expressed in Ki value, i.e. Ki hERG.

[3] = rat brain minus cerebellum membranes, 5 nM [3H]-MLA, read-out: α7 binding [3H]MLA Ki

hERG ion channel, sequence (Q12809 whole entry): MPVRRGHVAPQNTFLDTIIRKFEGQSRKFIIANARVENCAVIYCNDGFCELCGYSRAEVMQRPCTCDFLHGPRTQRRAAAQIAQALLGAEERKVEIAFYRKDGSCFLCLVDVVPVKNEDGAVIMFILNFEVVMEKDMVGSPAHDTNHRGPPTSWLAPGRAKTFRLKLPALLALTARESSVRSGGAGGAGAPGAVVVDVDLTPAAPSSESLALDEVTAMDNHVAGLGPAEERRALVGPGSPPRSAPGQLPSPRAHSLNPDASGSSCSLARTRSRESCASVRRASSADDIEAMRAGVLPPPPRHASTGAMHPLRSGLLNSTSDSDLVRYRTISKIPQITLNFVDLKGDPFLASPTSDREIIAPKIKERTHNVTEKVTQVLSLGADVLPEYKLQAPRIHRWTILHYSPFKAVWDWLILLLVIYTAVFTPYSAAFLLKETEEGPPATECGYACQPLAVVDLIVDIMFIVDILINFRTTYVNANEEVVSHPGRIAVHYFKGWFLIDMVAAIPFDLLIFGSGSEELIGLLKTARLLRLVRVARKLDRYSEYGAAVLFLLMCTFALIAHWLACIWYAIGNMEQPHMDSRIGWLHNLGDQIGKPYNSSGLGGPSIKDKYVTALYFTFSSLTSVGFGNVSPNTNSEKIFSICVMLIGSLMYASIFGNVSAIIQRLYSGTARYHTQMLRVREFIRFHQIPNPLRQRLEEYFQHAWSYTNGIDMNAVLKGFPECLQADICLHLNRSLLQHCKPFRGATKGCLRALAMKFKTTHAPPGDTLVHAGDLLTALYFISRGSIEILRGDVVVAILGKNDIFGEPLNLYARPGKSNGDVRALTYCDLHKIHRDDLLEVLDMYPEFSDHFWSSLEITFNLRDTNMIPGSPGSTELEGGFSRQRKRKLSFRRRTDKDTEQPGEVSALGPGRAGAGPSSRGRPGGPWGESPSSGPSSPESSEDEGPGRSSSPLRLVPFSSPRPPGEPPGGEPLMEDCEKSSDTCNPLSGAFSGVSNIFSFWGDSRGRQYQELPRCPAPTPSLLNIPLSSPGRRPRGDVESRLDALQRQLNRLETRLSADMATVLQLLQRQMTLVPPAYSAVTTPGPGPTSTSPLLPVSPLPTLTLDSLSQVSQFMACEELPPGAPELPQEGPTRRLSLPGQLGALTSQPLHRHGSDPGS
T1 sequence (Q05941 23-502): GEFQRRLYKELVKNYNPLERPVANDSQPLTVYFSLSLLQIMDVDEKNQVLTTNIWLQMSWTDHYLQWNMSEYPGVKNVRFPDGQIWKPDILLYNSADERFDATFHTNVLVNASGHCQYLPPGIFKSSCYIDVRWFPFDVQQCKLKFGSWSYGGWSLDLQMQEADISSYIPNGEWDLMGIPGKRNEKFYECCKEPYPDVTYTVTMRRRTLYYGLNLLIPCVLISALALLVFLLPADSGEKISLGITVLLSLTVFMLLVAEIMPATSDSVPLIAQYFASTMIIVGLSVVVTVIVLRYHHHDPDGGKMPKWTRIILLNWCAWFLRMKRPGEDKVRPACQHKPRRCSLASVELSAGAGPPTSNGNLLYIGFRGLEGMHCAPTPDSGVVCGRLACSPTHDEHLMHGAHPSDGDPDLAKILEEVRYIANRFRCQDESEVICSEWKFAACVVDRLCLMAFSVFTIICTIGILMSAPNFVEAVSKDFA

| Compound | Ki [1, 3] | Ki [2] | selectivity ratio at 45 min [2] | Ki [1] |
| --- | --- | --- | --- | --- |
| Cc1n[nH]c2ccc(-c3ccc(O[C@H]4CN5CCC4CC5)nn3)cc12 [Example 20, (R)-3-[6-(3-Methyl-1H-indazol-5-yl)-pyridazin-3-yloxy]-1-aza-bicyclo[2.2.2]octane fumarate] | 0.0163 µM | 13 µM | 797 |  |
| c1ccc2cc(-c3ccc(O[C@H]4CN5CCC4CC5)nn3)ccc2c1 [Example A, (R)-3-(6-Naphthalen-2-yl-pyridazin-3-yloxy)-1-aza-bicyclo[2.2.2]octane trifluoroacetate, reference compound] | 0.0789 µM | 0.838 µM | 11 |  |
| c1cc2c(cc1-c1ccc(O[C@H]3CN4CCC3CC4)nn1)CCC2 [E, (R)-3-(6-Indan-5-yl-pyridazin-3-yloxy)-1-aza-bicyclo[2.2.2]octane trifluoroacetate, reference compound] | 0.0339 µM | 1.68 µM | 50 |  |
| c1cc2cc(-c3ccc(O[C@H]4CN5CCC4CC5)nc3)ccc2[nH]1 [Example 31, (R)-3-[5-(1H-Indol-5-yl)-pyridin-2-yloxy]-1-aza-bicyclo[2.2.2]octane trifluoroacetate] | 0.0076 µM | 2.57 µM | 339 |  |
| c1cc2cc(-c3ccc(O[C@H]4CN5CCC4CC5)nn3)ccc2o1 [B, (R)-3-[6-(Benzofuran-5-yl)-pyridazin-3-yloxy]-1-aza-bicyclo[2.2.2]octane trifluoroacetate, reference compound] | 0.142 µM | 4.09 µM | 29 |  |
| CN(C)Cc1c[nH]c2ccc(-c3ccc(O[C@H]4CN5CCC4CC5)nn3)cc12 [Example 22, (R)-{5-[6-(1-Aza-bicyclo[2.2.2]oct-3-yloxy)-pyridazin-3-yl]-1H-indol-3-ylmethyl}-dimethyl-amine bis(fumarate)] | 0.0558 µM | 37.3 µM | 669 |  |
| Cc1c[nH]c2ccc(-c3ccc(O[C@H]4CN5CCC4CC5)nn3)cc12 [Example 10, 5-{6-[(3R)-1-Azabicyclo[2.2.2]oct-3-yloxy]pyridazin-3-yl}-3-methyl-1H-indole] |  | 5.2 µM | 1680 | 0.0031 µM |
| Nc1nc2ccc(-c3ccc(O[C@H]4CN5CCC4CC5)cc3)cc2s1 [Example 16, 6-{4-[(3R)-1-Azabicyclo[2.2.2]oct-3-yloxy]phenyl}-1,3-benzothiazol-2-amine] |  | 1.51 µM | 888 | 0.0017 µM |
| c1ccc2oc(-c3ccc(O[C@H]4CN5CCC4CC5)nn3)cc2c1 [Example C, (R)-3-[6-(Benzofuran-2-yl)-pyridazin-3-yloxy]-1-aza-bicyclo[2.2.2]octane trifluoroacetate, reference compound] | 0.162 µM | 0.392 µM | 2 |  |
| c1cc(-c2cnc(O[C@H]3CN4CCC3CC4)nc2)c2cc[nH]c2c1 [Example 12, 4-{2-[(3R)-1-Azabicyclo[2.2.2]oct-3-yloxy]pyrimidin-5-yl}-1H-indole] |  | 8.83 µM | 516 | 0.0171 µM |
| c1cc2cc(-c3ccc(O[C@H]4CN5CCC4CC5)nn3)ccc2[nH]1 [Example 9, 5-{6-[(3R)-1-Azabicyclo[2.2.2]oct-3-yloxy]pyridazin-3-yl}-1H-indole] | 0.0067 µM | 10.9 µM | 1620 |  |
| c1cc2cc(-c3ccc(O[C@@H]4CN5CCC4CC5)nn3)ccc2[nH]1 [Example 30, (S)-3-[6-(1H-Indol-5-yl)-pyridazin-3-yloxy]-1-aza-bicyclo[2.2.2]octane fumarate] | 0.0043 µM | 12.7 µM | 2960 |  |
| O=C1Cc2cc(-c3ccc(O[C@H]4C[N+]5([O-])CCC4CC5)nn3)ccc2N1 [Example 27, 5-{6-[(3R)-1-Oxy-1-Aza-bicyclo[2.2.2]oct-3-yloxy]-pyridazin-3-yl}-1,3-dihydro-indol-2-one bis(hydrogen chloride)] | 0.0139 µM | > 50 µM | > 4000 |  |
| C1=Cc2cc(-c3ccc(O[C@H]4CN5CCC4CC5)nn3)ccc2C1 [D, (R)-3-[6-(1H-Inden-5-yl)-pyridazin-3-yloxy]-1-aza-bicyclo[2.2.2]octane trifluoroacetate, reference compound] | 0.0157 µM | 2.09 µM | 133 |  |

From patent publication US7655657B2, “Fused bicycloheterocycle substituted quinuclidine derivatives” (Abbott Laboratories, priority 2003, dated 2010)
